In EP3807270B1, “NOVEL HETEROARYL HETEROCYCLYL COMPOUNDS FOR THE TREATMENT OF AUTOIMMUNE DISEASE” (F. Hoffmann-La Roche AG, priority 2018, dated 2019):

Molecular target: T1, hERG channel (Homo sapiens, UniProt Q12809)
T1 construct: expressed in transfected cells; host or cells: CHO (Chinese hamster ovary)
Test: hERG channel inhibition assay (patch-clamp, CHO hERG cells)
Format: cell-based
Conditions: for IC50 / IC20: CHO hERG cells, whole-cell patch-clamp; for IC20: human, CHO cells stably expressing hERG; for hERG IC20 / TLR8 IC50 / hERG IC20 / TLR7 IC50 / hERG IC20 / TLR9 IC50: safety ratio; for hERG IC20 / TLR7 IC50: TLR7 IC50 of ER compounds from Table 1; for hERG IC20 / TLR9 IC50: TLR9 IC50 of ER compounds from Table 1
Protocol: The hERG K^+ channels were cloned in humans and stably expressed in a CHO (Chinese hamster ovary) cell line. CHOhERG cells were used for patch-clamp (voltage-clamp, whole-cell) experiments. Cells were stimulated by a voltage pattern to activate hERG channels and conduct IKhERG currents (rapid delayed outward rectifier potassium current of the hERG channel). After the cells were stabilized for a few minutes, the amplitude and kinetics of IKhERG were recorded at a stimulation frequency of 0.1 Hz (6 bpm). Thereafter, the test compound was added to the preparation at increasing concentrations. For each concentration, an attempt was made to reach a steady-state effect, usually, this was achieved within 3-10 min at which time the next highest concentration was applied. The amplitude and kinetics of IKhERG are recorded in each concentration of the drug which were compared to the control values (taken as 100%). (references: Redfern WS, Carlsson L, Davis AS, Lynch WG, MacKenzie I, Palethorpe S, Siegl PK, Strang I, Sullivan AT, Wallis R, Camm AJ, Hammond TG. 2003; Relationships between preclinical cardiac electrophysiology, clinical QT interval prolongation and torsade de pointes for a broad range of drugs: evidence for a provisional safety margin in drug development. Cardiovasc. Res. 58:32-45, Sanguinetti MC, Tristani-Firouzi M. 2006; hERG potassium channels and cardiac arrhythmia. Nature 440:463-469, Webster R, Leishman D, Walker D. 2002; Towards a drug concentration effect relationship for QT prolongation and torsades de pointes. Curr. Opin. Drug Discov. Devel. 5:116-26).
Table 3. hERG and safety ratio results

T1 sequence (Q12809 whole entry): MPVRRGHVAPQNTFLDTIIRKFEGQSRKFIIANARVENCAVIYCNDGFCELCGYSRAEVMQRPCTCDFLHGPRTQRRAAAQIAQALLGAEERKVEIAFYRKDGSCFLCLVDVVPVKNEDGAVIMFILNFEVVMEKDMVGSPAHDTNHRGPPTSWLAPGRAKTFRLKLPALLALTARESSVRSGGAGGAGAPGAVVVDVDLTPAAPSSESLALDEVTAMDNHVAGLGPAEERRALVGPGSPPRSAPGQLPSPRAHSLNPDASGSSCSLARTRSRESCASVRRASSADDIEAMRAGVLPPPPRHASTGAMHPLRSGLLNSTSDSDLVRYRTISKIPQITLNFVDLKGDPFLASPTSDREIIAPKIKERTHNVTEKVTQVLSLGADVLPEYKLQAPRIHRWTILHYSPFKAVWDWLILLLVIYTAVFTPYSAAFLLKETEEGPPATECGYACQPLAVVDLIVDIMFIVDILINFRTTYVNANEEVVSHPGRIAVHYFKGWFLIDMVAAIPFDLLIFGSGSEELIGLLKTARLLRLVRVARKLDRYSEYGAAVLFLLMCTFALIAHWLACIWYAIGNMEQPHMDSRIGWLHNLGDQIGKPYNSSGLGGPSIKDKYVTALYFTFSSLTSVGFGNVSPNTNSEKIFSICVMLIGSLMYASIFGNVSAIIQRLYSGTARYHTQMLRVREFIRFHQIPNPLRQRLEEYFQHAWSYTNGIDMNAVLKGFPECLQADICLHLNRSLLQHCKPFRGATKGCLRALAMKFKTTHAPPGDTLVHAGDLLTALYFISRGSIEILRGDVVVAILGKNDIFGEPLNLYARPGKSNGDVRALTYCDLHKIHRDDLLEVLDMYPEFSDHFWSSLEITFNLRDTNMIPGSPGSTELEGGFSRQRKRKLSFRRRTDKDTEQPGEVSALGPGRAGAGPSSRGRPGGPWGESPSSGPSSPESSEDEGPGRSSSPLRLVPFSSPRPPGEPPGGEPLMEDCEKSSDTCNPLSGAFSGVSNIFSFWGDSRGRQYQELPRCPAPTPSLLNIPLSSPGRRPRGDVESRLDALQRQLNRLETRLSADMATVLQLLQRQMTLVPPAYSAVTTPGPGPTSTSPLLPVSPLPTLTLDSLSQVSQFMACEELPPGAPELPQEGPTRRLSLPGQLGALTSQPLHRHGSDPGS

C[C@@H]1Cc2cc(N3CCN(C[C@H]4CN(c5ccc(C#N)c6ncccc56)C[C@@H](C)O4)CC3)ncc2CN1 (single isomer, unassigned) [Example 70]
IC50: > 20 µM | IC20: > 10 µM | hERG IC20 / TLR8 IC50: >2439.0 | hERG IC20 / TLR7 IC50: >390.6 | hERG IC20 / TLR9 IC50: >120.91

C[C@@H]1CN(c2ccc(C#N)c3ncccc23)C[C@H](CN2CCN(c3cc4c(cn3)CCN[C@@H]4C)CC2)O1 (single isomer, unassigned) [Example 74]
IC50: > 20 µM | IC20: > 10 µM | hERG IC20 / TLR8 IC50: >2857.1 | hERG IC20 / TLR7 IC50: >1470.6 | hERG IC20 / TLR9 IC50: >112.1

C[C@@H]1CN(c2ccc(C#N)c3ncccc23)C[C@H](CN2CCN(c3cc4c(cn3)C[C@H](C)NC4)CC2)O1 (single isomer, unassigned) [Example 76]
IC50: > 20 µM | IC20: > 10 µM | hERG IC20 / TLR8 IC50: >1960.8 | hERG IC20 / TLR7 IC50: >714.3 | hERG IC20 / TLR9 IC50: >102.7

C[C@@H]1Cc2cnc(N3CCN(C[C@H]4CN(c5ccc(C#N)c6ncccc56)C[C@@H](C)O4)CC3)cc2CN1 (single isomer, unassigned) [Example 77]
IC50: > 20 µM | IC20: > 10 µM | hERG IC20 / TLR8 IC50: >1515.2 | hERG IC20 / TLR7 IC50: >885.0 | hERG IC20 / TLR9 IC50: >86.9

C[C@@H]1CN(c2ccc(C#N)c3ncccc23)C[C@H](CN2CCN(c3ccc4c(c3)CCNC4)CC2)O1 [Example 5, 5-[(2R,6S)-2-methyl-6-[[4-(1,2,3,4-tetrahydroisoquinolin-6-yl)piperazin-1-yl]methyl]morpholin-4-yl]quinoline-8-carbonitrile]
IC50: > 20 µM | IC20: > 10 µM | hERG IC20 / TLR8 IC50: >497.5 | hERG IC20 / TLR7 IC50: >320.5 | hERG IC20 / TLR9 IC50: >156.0

C[C@@H]1CN(c2ccc(C#N)c3ncccc23)C[C@H](CN2CCN(c3ccc4c(c3)CNC4)CC2)O1 [Example 7, 5-[(2S,6R)-2-[(4-isoindolin-5-ylpiperazin-1-yl)methyl]-6-methyl-morpholin-4-yl] quinoline-8-carbonitrile]
IC50: > 20 µM | IC20: 5.74 µM | hERG IC20 / TLR8 IC50: 194.6 | hERG IC20 / TLR7 IC50: 146.5 | hERG IC20 / TLR9 IC50: 64.5

C[C@@H]1CN(c2ccc(C#N)c3ncsc23)C[C@H](CN2CCN(c3cnc4c(c3)CNC4)CC2)O1 [Example 8, 7-[(2S,6R)-2-[[4-(6,7-dihydro-5H-pyrrolo[3,4-b]pyridin-3-yl)piperazin-1-yl]methyl]-6-methyl-morpholin-4-yl]-1,3-benzothiazole-4-carbonitrile]
IC50: > 20 µM | IC20: > 10 µM | hERG IC20 / TLR8 IC50: >3333.3 | hERG IC20 / TLR7 IC50: >1020.4 | hERG IC20 / TLR9 IC50: >207.5

C[C@@H]1CN(c2ccc(C#N)c3ncccc23)C[C@H](CN2CCN(c3ccc4c(n3)CCNC4)CC2)O1 [Example 14, 5-[(2R,6S)-2-methyl-6-[[4-(5,6,7,8-tetrahydro-1,6-naphthyridin-2-yl)piperazin-1-yl]methyl]morpholin-4-yl]quinoline-8-carbonitrile]
IC50: > 20 µM | IC20: 7.07 µM | hERG IC20 / TLR8 IC50: 1725.4 | hERG IC20 / TLR7 IC50: 673.7 | hERG IC20 / TLR9 IC50: 122.8

C[C@@H]1CN(c2ccc(C#N)c3ncccc23)C[C@H](CN2CCN(c3ccc4c(c3)CN(CCO)C4)CC2)O1 [Example 16, 5-[(2S,6R)-2-[[4-[2-(2-hydroxyethyl)isoindolin-5-yl]piperazin-1-yl]methyl]-6-methyl-morpholin-4-yl]quinoline-8-carbonitrile]
IC50: > 20 µM | IC20: > 10 µM | hERG IC20 / TLR8 IC50: >1000.0 | hERG IC20 / TLR7 IC50: >490.2 | hERG IC20 / TLR9 IC50: >110.4

C[C@@H]1CN(c2ccc(C#N)c3ncccc23)C[C@H](CN2CCN(c3cc4c(cn3)CNCC4)CC2)O1 [Example 19, 5-[(2R,6S)-2-methyl-6-[[4-(5,6,7,8-tetrahydro-2,7-naphthyridin-3-yl)piperazin-1-yl]methyl]morpholin-4-yl]quinoline-8-carbonitrile]
IC50: > 20 µM | IC20: > 10 µM | hERG IC20 / TLR8 IC50: >2283.1 | hERG IC20 / TLR7 IC50: >1118.6 | hERG IC20 / TLR9 IC50: >158.3

C[C@@H]1CN(c2ccc(C#N)c3ncccc23)C[C@H](CN2CCN(c3cc4c(cn3)CCNC4)CC2)O1 [Example 20, 5-[(2R,6S)-2-methyl-6-[[4-(5,6,7,8-tetrahydro-2,6-naphthyridin-3-yl)piperazin-1-yl]methyl]morpholin-4-yl]quinoline-8-carbonitrile]
IC50: > 20 µM | IC20: > 10 µM | hERG IC20 / TLR8 IC50: >1666.7 | hERG IC20 / TLR7 IC50: >1298.7 | hERG IC20 / TLR9 IC50: >139.1

C[C@@H]1CN(c2ccc(C#N)c3ncccc23)C[C@H](CN2CCN(c3cnc4c(c3)CNCC4)CC2)O1 [Example 21, 5-[(2R,6S)-2-methyl-6-[[4-(5,6,7,8-tetrahydro-1,6-naphthyridin-3-yl)piperazin-1-yl]methyl]morpholin-4-yl]quinoline-8-carbonitrile]
IC50: > 20 µM | IC20: > 10 µM | hERG IC20 / TLR8 IC50: >1098.9 | hERG IC20 / TLR7 IC50: >900.9 | hERG IC20 / TLR9 IC50: >193.8

C[C@@H]1CN(c2ccc(C#N)c3ncccc23)C[C@H](CN2CCN(c3ccc4c(c3)C(O)CNC4)CC2)O1 (stereo partly drawn) [Example 22, 5-[(2S,6R)-2-[[4-(4-hydroxy-1,2,3,4-tetrahydroisoquinolin-6-yl)piperazin-1-yl]methyl]-6-methyl-morpholin-4-yl]quinoline-8-carbonitrile]
IC50: > 20 µM | IC20: > 10 µM | hERG IC20 / TLR8 IC50: >520.8 | hERG IC20 / TLR7 IC50: >259.7 | hERG IC20 / TLR9 IC50: >222.7

C[C@@H]1CN(c2ccc(C#N)c3ncccc23)C[C@H](CN2CCN(c3cnc4c(c3)CCNC4)CC2)O1 [Example 23, 5-[(2R,6S)-2-methyl-6-[[4-(5,6,7,8-tetrahydro-1,7-naphthyridin-3-yl)piperazin-1-yl]methyl]morpholin-4-yl]quinoline-8-carbonitrile]
IC50: > 20 µM | IC20: > 10 µM | hERG IC20 / TLR8 IC50: >934.6 | hERG IC20 / TLR7 IC50: >170.6 | hERG IC20 / TLR9 IC50: >170.1

C[C@@H]1CN(c2ccc(C#N)c3nccnc23)C[C@H](CN2CCN(c3cnc4c(c3)CNC4)CC2)O1 [Example 25, 8-[(2S,6R)-2-[[4-(6,7-dihydro-5H-pyrrolo[3,4-b]pyridin-3-yl)piperazin-1-yl]methyl]-6-methyl-morpholin-4-yl] quinoxaline-5-carbonitrile]
IC50: > 20 µM | IC20: > 10 µM | hERG IC20 / TLR8 IC50: >584.8 | hERG IC20 / TLR7 IC50: >520.8 | hERG IC20 / TLR9 IC50: >111.7

C[C@@H]1CN(c2ccc(C#N)c3ncccc23)C[C@H](CN2CCN(c3ccc4c(n3)CNC4)CC2)O1 [Example 30, 5-[(2S,6R)-2-[[4-(6,7-dihydro-5H-pyrrolo[3,4-b]pyridin-2-yl)piperazin-1-yl]methyl]-6-methyl-morpholin-4-yl] quinoline-8-carbonitrile]
IC50: > 20 µM | IC20: > 10 µM | hERG IC20 / TLR8 IC50: >1515.2 | hERG IC20 / TLR7 IC50: >840.3 | hERG IC20 / TLR9 IC50: >246.3

CC1NCc2ncc(N3CCN(C[C@H]4CN(c5ccc(C#N)c6ncccc56)C[C@@H](C)O4)CC3)cc21 (stereo partly drawn) [Example 41, 5-[(2R,6S)-2-methyl-6-[[4-(5-methyl-6,7-dihydro-5H-pyrrolo[3,4-b]pyridin-3-yl)piperazin-1-yl]methyl]morpholin-4-yl]quinoline-8-carbonitrile]
IC50: > 20 µM | IC20: > 10 µM | hERG IC20 / TLR8 IC50: >574.7 | hERG IC20 / TLR7 IC50: >354.6 | hERG IC20 / TLR9 IC50: >166.7
